Assay results as given in patent US20100068211A1, “USE OF ANTIRESORPTIVE COMPOUNDS TO PREVENT IONIZING RADIATION-INDUCED ACTIVATION OF OSTEOCLASTS AND RESULTING BONE LOSS” (priority 2008, published 2010).
Marks after values point to notes of the source that are not given here.

Experiments:
[1] = cited from earlier work
female B6 mice = assay: High dose zoledronate against radiation-induced bone loss in mice, microCT (Example 6); assay type: in vivo; settings: for radiation-induced bone loss: 12-week-old mice, 2 Gy whole body X-rays, single 10 mg/kg dose of zoledronate, microCT 2 weeks after irradiation, 10 mg/kg
Protocol: The antiresorptive bisphosphonate zoledronate was selected as representative of the class of antiresorptive agents and was tested, at high doses of 10 mg/kg, for its ability to prevent radiation-induced bone loss.
12-week-old female B6 mice were either 1) not irradiated and treated with a placebo injection, 2) irradiated with a 2 Gy whole body dose of X-rays and treated with a placebo injection, or 3) irradiated with a 2 Gy whole body dose of X-rays and treated with a single 10 mg/kg dose of […]. Bones were collected and examined by microCT 2 weeks after irradiation and zoledronate injection.

female C57BL/6 mice = assay: Risedronate treatment of radiation-induced bone loss in mice, microCT (Example 4); assay type: in vivo; settings: 2 Gy whole body X-rays
minipigs = settings: 2.5 vs 0.5 mg/kg/day oral; cited from earlier work
osteocalcin = assay: Serum osteocalcin ELISA, irradiated mice treated with risedronate (Example 4b); assay type: in vivo; settings: 2 Gy irradiated mice; risedronate 30 μg/kg every other day
Protocol: (§1) Tissue collection: 12 individuals from each group were sacrificed at 1, 2, and 3 weeks following the initial radiation exposure. Each mouse weighed then anesthetized using isoflurane, and blood was collected for serum analysis by cardiac puncture and exsanguination followed by cervical dislocation to ensure death. Serum was isolated by centrifugation, flash frozen in liquid nitrogen, and stored at −80° C. The left and right hind limbs as well as the vertebral column were collected for analysis. Hind limbs were removed and disarticulated. Tibiae and femora were cleaned of soft tissue and fixed in a solution of 10% formalin. After 48 hours, the bones were placed in 70% ethanol. The vertebral column was frozen at −20° C. to ensure microcomputed tomography (microCT) analysis of the fifth lumbar vertebrae (L5).
(§2) Serum Chemistry: Serum samples were analyzed for circulating markers of bone formation and resorption. ELISA kits for osteocalcin (Biomedical Technologies, Inc., Stoughton, Mass.) and tartrate-resistant acid phosphatase (TRAP5b) (Immunodiagnostic Systems, Inc., Fountain Hills, Az.), respectively. The analyses were performed according to protocols provided by the manufacturers.

OVX rat = settings: OVX rats; administered orally; cited from earlier work
aged rats = aged rats (9 months then allowed to mature 60 days); 0.02 or 0.04 mg/kg/wk; cited from earlier work
[2] = test system: female Sprague-Dawley rats; assay: Rat model, clinically-modeled radiation dose regimen with risedronate, tibia microCT (Example 5); assay type: in vivo; settings: risedronate 0.1 mg/kg/week subcutaneously; for Conn. Dens. (connectivity density) / SMI (structural model index) / Tb. N. (trabecular number) / Tb. Sp. (trabecular spacing) / Tb. Th (trabecular thickness) / BV/TV (bone volume fraction): mean ± SEM
Description: The right hindlimb from twenty-one week old female Sprague-Dawley rats were irradiated using a clinical irradiator (linear accelerator; LINAC; Wake Forest University). The dose applied was 16 Gy given as 4 fractions of 4 Gy each. This dose is the equivalent in terms of biological impacts on the hip during the course of radiation therapy for cancer, as determined by radiation biophysicists. Irradiations (all four total) were provided over the course of two weeks. Animals either received no radiation, radiation only, or radiation+risedronate injection (0.1 mg/kg/week subcutaneously). Administration of risedronate was provided one day prior to the first irradiation, then three times per week until sacrifice.
Animals were sacrificed two and four weeks after exposure. Hindlimbs were removed, and the tibiae were examined via microCT for several parameters. Meanings of the following trabecular parameters as they relate with conditions of increased resorption or atrophy are provided in Example 3 Methods Section: BV/TV; connectivity density (Conn.Dens.); trabecular thickness (Tb.Th.); trabecular number (Tb.N); and trabecular spacing (Tb.S.) were again determined. All measurements were taken within a region extending 1 mm distal to the growth plate.

TRAP5b = assay: Serum TRAP5b ELISA, irradiated mice treated with risedronate (Example 4b); assay type: in vivo; settings: 2 Gy irradiated mice, risedronate 30 μg/kg every other day, 7, 14 and 21 days
Protocol: as §1, §2

[3] = realistic order stated in text; 1% assumed for dose conversion; cited from earlier work
rats = settings: 0.1 mg/kg/week administered subcutaneously; cited from earlier work
osteoclasts = assay: Histological analysis of osteoclast surface (TRAP staining), proximal tibia trabecular bone (Example 4c); assay type: in vivo, mice; settings: one week after exposure, but not two and three weeks; 2 Gy; risedronate 30 micrograms/kg every other day; versus non-irradiated control
Description: Osteoclast Identification: Following tomographic analysis, the left tibiae were decalcified using a formic acid solution (Immunocal; Decal Chemical Corp., Talman, N.Y.) and embedded in a glycol methacrylate resin (ImmunoBed™; Polysciences, Wasrrington, Pa.). The samples were cut into sagittal sections with a thickness of 3 μm. A subset of each group (n=5-6) was selected for analysis. Each slide was stained with TRAP using a commercial kit (Sigma, St. Louis, Mo.) to identify osteoclasts and counterstained with hematoxylin, Radiographs assessed the earliest time point of complete decalcification. […] Osteoclast presence was determined by tartrate resistant acid phosphatase (TRAP) staining of the slides using a commercial kit (Sigma; St. Louis, Mo.) and then counterstaining with hematoxylin (Sigma).
Histomorphometric evaluation was performed from captured micrographs (200×) throughout the metaphysis, starting approximately 0.25 mm distal from the growth plate (in order to exclude the primary spongiosa) and extending a further 0.5 mm. Bone histomorphometric parameters for the proximal metaphysis of the tibia were measured as described in the report of the American Society of Bone and Mineral Research (ASBMR) Histomophometry Nomenclature Committee (22). Surface measurements were quantified relative to total bone surface (BS). […]

[4] = risedronate 30 μg/kg subcutaneous every other day
[5] = 2 Week Examination, 16 Gy (4 x 4 Gy)
[6] = 4 Week Examination, 16 Gy (4 x 4 Gy)

Denosumab: fully human anti-RANKL antibody that binds RANK ligand and blocks its binding to RANK, formerly AMG162 (Amgen)
effect of low doses on markers for bone formation ([1]; 0.01 mg/kg and 0.03 mg/kg): reduced markers for bone formation, but for only temporary periods
duration of efficacy ([1]; 0.3, 1.0 and 3.0 mg/kg): > 30 days
performance compared with standard 90 mg dose of pamidronate ([1]; 0.3, 1.0 and 3.0 mg/kg): performed similarly

O=P(O)(O)C(O)(Cn1ccnc1)P(=O)(O)O [zoledronate]
radiation-induced bone loss (female B6 mice): prevents radiation-induced bone loss
radiation-induced bone loss (female B6 mice; listed as Zoledronate): prevented the bone loss
bone mass versus untreated, non-irradiated levels (female B6 mice; growing mice, 2 Gy, single 10 mg/kg zoledronate, 2 weeks): increased to greater than untreated, non-irradiated levels

O=P(O)(O)C(O)(Cc1cccnc1)P(=O)(O)O [risedronate]
radiation-induced bone loss at the 5th lumbar vertebra (FIG. 13) (female C57BL/6 mice; [4]): prevents rapid radiation-induced bone loss
radiation-induced bone loss at the distal femur (FIG. 12) (female C57BL/6 mice; [4]): prevents rapid radiation-induced bone loss
radiation-induced bone loss (proximal tibia, distal femur and 5th lumbar vertebra) (female C57BL/6 mice; risedronate 30 μg/kg/injection subcutaneous every other day, 1, 2 and 3 weeks): prevents radiation-induced bone loss
preserving architecture, comparison of oral doses (minipigs): more pronounced in animal models (minipigs) using 2.5 mg/kg/day than 0.5 mg/kg/day
serum osteocalcin levels (marker for bone formation) (osteocalcin): trended to decrease levels
oral doses at which improvement in bone mineral density and preservation of microarchitecture generally occurred (OVX rat): greater than 0.5 mg/kg/day
histomorphometric changes in the tibial diaphysis (aged rats): no histomorphometric changes
Conn. Dens. (connectivity density) [2, 5]: 95.4 ± 4.4^b l/mm^3
SMI (structural model index) [2, 5]: 0.83 ± 0.07^e
Tb. N. (trabecular number) [2, 5]: 4.02 ± 0.11^g
Tb. Sp. (trabecular spacing) [2, 5]: 216 ± 8^g μm
Tb. Th (trabecular thickness) [2, 5]: 90.1 ± 1.4^b
BV/TV (bone volume fraction) ([2]; 2 Week Examination, right hindlimb 16 Gy (4 fractions of 4 Gy), tibia microCT): 31.9 ± 0.79^e %
effect on radiation-induced trabecular deterioration relative with control ([2]; 2 weeks, rats, 16 Gy): largely mitigated these changes
sparing effect on connectivity of the trabeculae compared with the differences after only receiving radiation ([2]; 2 weeks, rats): 12%
BV/TV (bone volume fraction) [2, 6]: 34.4 ± 1.2^b,^f %
Conn. Dens. (connectivity density) [2, 6]: 109.3 ± 4.6^e l/mm^3
SMI (structural model index) [2, 6]: 0.68 ± 0.12^a,^f
Tb. N. (trabecular number) [2, 6]: 4.37 ± 0.09^f
Tb. Sp. (trabecular spacing) [2, 6]: 193 ± 5^f μm
Tb. Th (trabecular thickness) [2, 6]: 90.9 ± 1.1^c,^h
evidence of trabecular deterioration via microCT relative with control ([2]; Week 4, rats, 16 Gy): has disappeared by Week 4
serum TRAP5b levels (marker for osteoclast activity) (TRAP5b): reduced at all time points
serum TRAP5b levels (marker for osteoclast activity) (TRAP5b; listed as Risedronate): reduced TRAP5b levels at all time points
oral bioavailability [3]: 0.5-0.7%
bone volume and fraction in GIO (rats): increased bone volume and fraction by reducing turnover
osteoclast surface, proximal tibia trabecular bone (osteoclasts): greater osteoclast surface
